Experimental data from patent US20110263677A1, “GOS2 MODULATORS IN THE TREATMENT OF ACNE, OF SEBORRHOEIC DERMATITIS OR OF HYPERSEBORRHOEA” (Galderma Research & Development, priority 2008, published 2011).

Tests used:
ACTB (standardizer 2) = assay: Real-time PCR gene expression in rat epidermal split containing sebaceous glands after topical treatment: ACTB; type: in vivo; conditions: topical administration, 0.3% in acetone, 96 hours
Procedure: (§1) Strain: OFA-SD (SPF Caw),
(§2) Number per batch: 40 (8 animals per group) Treatment: Route of administration: topical
(§3) Compound/batch: PPARgamma agonist (rosiglitazone)
(§4) Method of evaluation: The animals are weighed at the beginning and at the end of the study. Skin biopsies are taken (6 samples of skin excised per rat) in order to analyse the expression of the genes (RNA extraction, reverse transcriptase and real-time PCR). The samples are stored overnight at 4° C. before incubation in 1M sodium bromide (NaBr) for 2 hours at 37° C. After incubation, the samples are separated into epidermis or dermis. The epidermal samples are stored at […]. Under these conditions, the sebaceous glands are in the epidermal split. PCRs are carried out, beginning with the cDNAs originating from the epidermal splits containing sebaceous glands from control rats or rats treated with the PPARγ agonist: the mRNA is extracted using a column and quantified. The quality of mRNAs is measured and is represented by the 18S/28S ratio. The results are standardized with respect to 18S, expressed as relative induction versus untreated animals (carrier group). The statistical analysis is obtained using internal software based on a modified Monte Carlo statistical analysis.

HPRT1 (standardizer 1) = assay: Real-time PCR gene expression in rat epidermal split containing sebaceous glands after topical treatment: HPRT1; type: in vivo; conditions: topical administration, 0.3% in acetone, 96 hours
Procedure: as §1, §2, §3, §4

PPARG (reference gene) = assay: Real-time PCR gene expression in rat epidermal split containing sebaceous glands after topical treatment: PPARG; type: in vivo; conditions: topical administration, 0.3% in acetone, 96 hours
Procedure: as §1, §2, §3, §4

PPARG = assay: as above; type: in vivo; conditions: topical administration, 0.3% in acetone, 96 hours, versus carrier group
Procedure: as §1, §2, §3, §4

GOS2 [1] = assay: Real-time PCR gene expression in rat epidermal split containing sebaceous glands after topical treatment: GOS2; type: in vivo; conditions: topical administration, 0.3% in acetone, 96 hours
Procedure: as §1, §2, §3, §4

GOS2 [2] = conditions: mouse liver; Zandbergen et al., 2005; cited from earlier work

COCCOCOc1ccc2cc(C(=O)N(C)Cc3cccc(-c4ccc(CC5SC(=O)NC5=O)cc4)c3)ccc2c1 (stereo not drawn) [PPARgamma agonist, 6-(2-methoxyethoxy-methoxy)naphthalene-2-carboxylic acid [4′-(2,4-dioxothiazolidin-5-ylmethyl)biphenyl-3-ylmethyl]methylamide]
Variation versus carrier after standardization (ΔΔCt) (ACTB (standardizer 2)): 0.23
Relative induction (ACTB (standardizer 2); versus carrier group): 1.18
Variation versus carrier after standardization (ΔΔCt) (HPRT1 (standardizer 1)): −0.07
Relative induction (HPRT1 (standardizer 1); versus carrier group): −1.05
Variation versus carrier after standardization (ΔΔCt) (PPARG (reference gene)): 0.72
Relative induction (PPARG): 1.65
Variation versus carrier after standardization (ΔΔCt) (GOS2 [1]): 2.36
Relative induction (GOS2 [1]; versus carrier group): 5.24

Cc1cccc(Nc2cc(Cl)nc(SCC(=O)O)n2)c1C [Wy14643]
expression of GOS2 (marker for PPARalpha) (GOS2 [2]): induced
